Values of other authors, collected in US20250241850A1, “BIOADHESIVE NASAL SPRAY COMPOSITION, PREPARATION METHOD AND USE” (Eurofarma Laboratórios S.A., priority 2022, published 2025).
Counter-ions that a name gives are not always drawn.

Conditions: in vivo

**Q.** For `CN1C2CCCC1CC(NC(=O)c1nn(C)c3ccccc13)C2` (stereo not shown) [Granisetron hydrochloride], which half-life is on record?
**A.** 3 to 4 h
